This note sets out measurements from patent publication US10125112B2, “Modulators of the relaxin receptor 1” (The United States of America, as Represented by the …, priority 2012, dated 2018).

In brackets after ≈: the same amount, converted by molar mass. Where two headings read alike, the source gives them in different places.

In data set [1] the test system is VEGF gene expression in THP1 cells. Kind of data set: VEGF gene expression in THP1 cells (qRT-PCR). The class given is cell-based, human. As to conditions: 2 hours treatment, normalized to GAPDH. From the text: This example illustrates the activation of VEGF expression in THP1 cells by several embodiments of the disclosure.
THP1 cells (human acute monocytic leukemia cell line) were used to analyze the stimulation of VEGF gene expression after treatment with relaxin or compounds. The VEGF stimulation in these cultured endometrial cells is a well-established property of relaxin.^19 This effect is most probably responsible for the observed angiogenic and neovascularization properties of relaxin in various settings.^20 400,000 THP1 cells (0.4 mL at 1×10^6 cells/mL) in test media (RPMI-1640 without phenol red, 0.5% FBS, Ix Pen/Strep, 0.05 mM of 2-mercaptoethanol) were seeded in each well on a 24-well plate. After 24 hours incubation at 37° C., 5% CO2, relaxin or compounds were added for 2 hours. […] Quantitative real time RT-PCR for VEGF and GAPDH gene expression was done using a Roche LightCycler 480 (Roche Diagnostics, Indianapolis, Ind.) with the appropriate set of primers and probes spanning different exons. The relative fold change in VEGF mRNA level was calculated by the comparative Ct (2-ΔΔ^Ct) method using GAPDH expression for normalization of RNA. […]

The next data set has as its system cAMP in THP-1 cells. Kind of data set: cyclic AMP assay in THP-1 cells. The class given is cell-based. As to conditions: Homo sapiens. On the procedure:
This Example illustrates the cyclic AMP assay in THP-1 cells. THP-1 cells were propagated in RPMI-1640 supplemented with 20% FBS, 0.05 mM β-mercaptoethanol, 100 U/mL penicillin and 100 μg/mL streptomycin at 37° C. in 5% CO2. Before assaying for cAMP response, cells were serum starved in RPMI-1640 supplemented with 0.05 mM (3-mercaptoethanol, 100 U/mL penicillin and 100 μg/mL streptomycin at 37° C. in 5% CO2 for 16 hrs. For 384-well format assays, cells were seeded as 30,000 cells/well in 30 μL/well media with a MultiDrop Combi dispenser (Thermo Scientific, Waltham, Mass.). Subsequently, 2 μL/well of 1.6 mM Ro 20-1724 and 160 uM forskolin in PBS+ (DPBS, 1 mM CaCl2, 0.5 mM MgCl2, 0.05% BSA, 0.005% Tween 20) was dispensed using a BioRAPTR FRD dispenser (Beckman Coulter, Brea, Calif.). Immediately after, 0.25 μL/well of compound solutions in DMSO was dispensed with CyBi-well dispenser (CyBio, Jena, Germany). The cells were allowed to be stimulated with compounds for 30 min at 37° C. in 5% CO2, after which, 8 μL/well of each HTRF cAMP HiRange kit (CisBio, Bedford, Mass.) detection reagent was dispensed with a BioRAPTR FRD dispenser. The detection reagents were diluted as such: K-α-cAMP antibody at 1:20 and cAMP-d2 at 1:18 in HTRF lysis buffer (supplied by the assay kit). The plates were incubated for 30 min at room temperature before the signal was read on an Envision plate reader (PerkinElmer, Waltham, Mass.).

For the next data set, the target named is T1, RXFP1 (Homo sapiens, UniProt Q9HBX9).
T1 construct: expressed in transfected cells
T1 sequence (Q9HBX9 1-757): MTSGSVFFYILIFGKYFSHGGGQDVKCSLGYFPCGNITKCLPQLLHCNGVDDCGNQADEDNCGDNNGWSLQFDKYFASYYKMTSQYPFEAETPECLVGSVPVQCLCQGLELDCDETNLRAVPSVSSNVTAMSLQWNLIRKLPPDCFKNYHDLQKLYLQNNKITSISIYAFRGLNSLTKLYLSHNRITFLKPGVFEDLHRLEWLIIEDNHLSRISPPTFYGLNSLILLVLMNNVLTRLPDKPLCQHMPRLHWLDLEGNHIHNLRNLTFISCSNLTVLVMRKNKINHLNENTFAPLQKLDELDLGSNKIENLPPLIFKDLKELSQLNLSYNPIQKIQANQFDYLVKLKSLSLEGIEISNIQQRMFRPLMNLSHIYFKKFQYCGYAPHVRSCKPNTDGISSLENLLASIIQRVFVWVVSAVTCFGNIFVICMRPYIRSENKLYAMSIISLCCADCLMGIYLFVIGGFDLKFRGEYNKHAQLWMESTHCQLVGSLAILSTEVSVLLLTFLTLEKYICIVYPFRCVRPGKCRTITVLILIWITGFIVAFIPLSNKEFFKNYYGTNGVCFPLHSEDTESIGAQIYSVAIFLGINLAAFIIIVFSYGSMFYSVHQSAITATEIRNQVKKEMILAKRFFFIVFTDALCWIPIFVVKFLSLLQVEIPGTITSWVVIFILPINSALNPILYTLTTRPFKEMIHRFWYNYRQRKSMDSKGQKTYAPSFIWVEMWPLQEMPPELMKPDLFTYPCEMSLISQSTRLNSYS
Put plainly: RXFP1 cAMP assay in HEK293-RXFP1 cells (HTRF). It counts as cell-based. On the procedure: The RXFP1 receptor couples to the Gs protein, and activation of the receptor results in stimulation of cAMP production. […] The TR-FRET between the K-α-cAMP and cAMP-d2 is disrupted by cAMP in the cell lysates, thus allowing TR-FRET detection in a homogenous format that is suitable for HTS. […] The primary screen was carried out in 1536-well format, however, because of a more robust signal to background ratio, all subsequent follow-up experiments were carried out in 384-well format.
For the primary screen, HEK293-RXFP1 cells were seeded at 2,000 cells/well in 3 μL/well media with a MultiDrop Combi dispenser (Thermo Scientific, Logan, Utah), and allowed to attach overnight at 37° C., 5% CO2. […] The cells were allowed to be stimulated with the compounds for 30 minutes at 37° C., 5% CO2, after which, 1 μL/well of each HTRF detection reagent was dispensed with a BioRAPTR FRD dispenser. The detection reagents were diluted before addition as follows: K-α-cAMP antibody at 1:20 and cAMP-d2 at 1:18 in HTRF lysis buffer (supplied by the assay kit). The plates were incubated for 30 minute at room temperature, and then the signal was read on a ViewLux plate reader (PerkinElmer, Waltham, Mass.).
The assay was run according to the following protocol:
Max Response indicates what the maximal amount of functional activity induced by the compound is, as a percentage of the maximal receptor activation induced by high concentrations of forskolin.
On the technique in general: cAMP levels reflect the balance of adenylyl cyclase and phosphodiesterase activity.

The target of another data set is T2, RXFP2 (Homo sapiens, UniProt Q8WXD0).
T2 construct: expressed in transfected cells
Put plainly: RXFP2 cAMP assay in HEK293-RXFP2 cells. It counts as cell-based. As to the method:
HEK293 cells stably transfected with RXFP2, the cognate receptor for another relaxin family peptide, insulin-like 3, (HEK293-RXFP2) was used to test compound specificity towards the RXFP1 receptor. For this assay, cells were seeded at 8,000 cells/well in 30 µL/well of media with a MultiDrop Combi dispenser (Thermo Scientific), and allowed to attach overnight at 37° C., 5% CO2. Next, 2 µL/well of 1.6 mM Ro 20-1724 solution in PBS+(DPBS, 1 mM CaCl2, 0.5 mM MgCl2, 0.05% BSA, 0.005% Tween 20) were dispensed using a BioRAPTR FRD dispenser (Beckman Coulter, Brea, Calif.), followed addition of 0.25 μL/well of compound solution in DMSO with CyBi-well dispenser (CyBio, Jena, Germany). The cells were allowed to be stimulated with the compounds for 30 minutes at 37° C., 5% CO2, after which, 8 μL/well of each HTRF detection reagent (diluted according to assay kit directions in HTRF lysis buffer) was dispensed with a BioRAPTR FRD dispenser. The plates were incubated for 30 minute at 37° C., and then the signal was read on a ViewLux plate reader (PerkinElmer, Waltham, Mass.).

The nature of the next data set: PBS solubility. The settings on record: aqueous buffer. It counts as physicochemical.
The mark [2] stands for this setting: 0.5 h, THP-1 cells, cAMP HTRF, with Ro 20-1724 and forskolin, 30 min, read-out: EC50.
The mark [3] stands for this setting: percentage of the maximal receptor activation induced by high concentrations of forskolin, Tables 1-7, read-out: Max Response.
Where [4] appears, read: read-out: RXFP1 AC50 (μM, Max. Resp.): Max. Resp.
Where [5] appears, read: HEK293-RXFP1 cells, cAMP HTRF, with Ro 20-1724, Tables 1-7, read-out: RXFP1 AC50.

T2 sequence (Q8WXD0 whole entry, species assumed): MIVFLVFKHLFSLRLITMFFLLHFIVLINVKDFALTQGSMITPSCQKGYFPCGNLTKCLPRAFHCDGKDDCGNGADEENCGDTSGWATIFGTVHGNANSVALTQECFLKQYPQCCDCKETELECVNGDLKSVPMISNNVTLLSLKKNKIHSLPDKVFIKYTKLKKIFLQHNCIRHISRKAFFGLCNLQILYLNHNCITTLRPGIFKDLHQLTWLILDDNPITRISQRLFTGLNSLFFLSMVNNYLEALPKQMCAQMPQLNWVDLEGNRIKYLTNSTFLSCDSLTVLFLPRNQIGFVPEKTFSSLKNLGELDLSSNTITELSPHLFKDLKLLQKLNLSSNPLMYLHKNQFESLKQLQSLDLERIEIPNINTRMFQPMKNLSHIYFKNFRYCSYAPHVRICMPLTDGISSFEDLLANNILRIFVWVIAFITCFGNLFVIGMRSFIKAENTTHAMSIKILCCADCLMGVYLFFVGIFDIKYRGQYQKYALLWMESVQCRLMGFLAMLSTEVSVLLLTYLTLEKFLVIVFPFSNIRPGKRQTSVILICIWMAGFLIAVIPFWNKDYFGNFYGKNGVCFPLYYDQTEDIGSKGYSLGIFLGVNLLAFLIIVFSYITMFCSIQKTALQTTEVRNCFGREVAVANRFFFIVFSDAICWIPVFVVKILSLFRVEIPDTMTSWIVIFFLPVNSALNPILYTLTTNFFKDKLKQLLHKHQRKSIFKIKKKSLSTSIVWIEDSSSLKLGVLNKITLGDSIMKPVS

On to `CCOc1ccccc1C(=O)Nc1ccccc1C(=O)Nc1cccc(C(F)(F)F)c1` [Compound 99, 2-Ethoxy-N-(2-((3-(trifluoromethyl)phenyl)carbamoyl)phenyl)benzamide], for which, in data set [1], the “Relative VEGF gene expression (control = 1.0)” value is given as 1.9. Moreover, the EC50 with cAMP in THP-1 cells (setting [2]) is 471 nM.

As for `COc1ccccc1C(=O)Nc1ccccc1C(=O)Nc1cccc(SC(F)(F)F)c1` [Compound 158], the concentration giving a half-maximal response (EC50) with cAMP in THP-1 cells (setting [2]) worked out at 523 nM.

`COc1ccccc1C(=O)Nc1ccccc1C(=O)Nc1cccc(S(=O)(=O)C(F)(F)F)c1` [Compound 159, 2-Methoxy-N-(2-((3-((trifluoromethyl)sulfonyl)phenyl)carbamoyl)phenyl)benzamide]: the EC50 in the data set with cAMP in THP-1 cells (setting [2]) is 358 nM.

In the case of `O=C(Nc1ccc(F)cc1)c1ccccc1NC(=O)C1CCCCC1` [Example 13], on RXFP1 (setting [3]), the Emax is 74%.

Take `C#Cc1cccc(NC(=O)c2ccccc2NC(=O)C2CCCCC2)c1` [Example 21]: the Emax at RXFP1 (setting [3]) was 85%.

With `O=C(NCc1ccco1)c1ccccc1NC(=O)c1ccccc1NC(=O)C1CCCCC1` [Example 44], the Emax on RXFP1 (setting [3]) stood at 45%.

With `CC(=O)Nc1ccccc1C(=O)Nc1cccc(C(F)(F)F)c1` [Example 47], the Emax on RXFP1 (read-out: Max Response) amounted to 51%.

On to `O=C(Nc1cccc(C(F)(F)F)c1)c1ccccc1NC(=O)c1ccccc1C(F)(F)F` [Example 70], for which the Emax on RXFP1 (setting [3]) came to 70%.

Regarding `O=C(Nc1ccccc1C(=O)Nc1cccc(C(F)(F)F)c1)c1ccccc1I` [Example 86], the Emax on RXFP1 (setting [3]) worked out at 80%.

With `CCOc1ccccc1C(=O)Nc1ccccc1C(=O)Nc1cccc(C(F)(F)F)c1` [Example 99], the AC50 came out at 0.297 µM at RXFP1 (Table 10, read-out: RXFP1 AC50 (μM, Max. Resp.): AC50) and 9.4 µM at RXFP2 (HEK293-RXFP2 cells, inactive = Maximum response less than 30%, read-out: RXFP2 AC50 (μM, Max. Resp.): AC50). The Emax on RXFP1 (setting [3]) was determined as 94%; at RXFP1 (setting [4]), 95%; on RXFP2 (0.5 h, read-out: RXFP2 AC50 (μM, Max. Resp.): Max. Resp.), 47%. The solubility in “PBS solubility” is 1.7 µM (≈ 0.728 µg/mL).

Turning to `CCOc1ccccc1C(=O)Nc1ccccc1-c1nc2cc(C(F)(F)F)ccc2[nH]1` [Example 141], the Emax at RXFP1 (setting [3]) worked out at 31%.

On to `CCOc1ccccc1-c1nc2ccccc2c(=O)n1-c1cccc(-c2nnn[nH]2)c1` [Example 143], for which, on RXFP1 (setting [3]), the Emax is 36%.

As for `COc1ccccc1C(=O)Nc1ccccc1C(=O)Nc1cccc(S(=O)(=O)C(F)(F)F)c1` [Example 159], the Emax on RXFP1 (read-out: Max Response) and on RXFP1 (setting [4]) was 99% throughout.

Regarding `CCOc1ccccc1C(=O)Nc1ccccc1C(=O)Nc1cncc(I)c1` [Example 165], at RXFP1 (setting [5]), the concentration at half-maximal activity (AC50) was determined as 11.8 µM. Besides, the Emax at RXFP1 (setting [3]) amounted to 72%.

For `C/C=C\c1cccc(NC(=O)c2ccccc2NC(=O)c2ccccc2OCC)c1` [Example 169], at RXFP1 (setting [5]), the AC50 was 1.49 µM. The Emax at RXFP1 (setting [3]) was determined as 91%.

Turning to `CCSc1ccccc1C(=O)Nc1ccccc1C(=O)Nc1cccc(S(=O)(=O)C(F)(F)F)c1` [Example 176], at RXFP1 (setting [3]), the Emax came to 95%.

As for `O=C(Nc1cccc(S(=O)(=O)C(F)(F)F)c1)c1ccccc1NC(=O)c1ccccc1OCC(F)(F)F` [Example 177, 2-(2,2,2-Trifluoroethoxy)-N-(2-((3-((trifluoromethyl)sulfonyl)phenyl)carbamoyl)phenyl)benzamide], in the data set with cAMP in THP-1 cells (THP-1, 0.5 h), a half-maximal effect (EC50) was put at 107 nM.

For the molecule `O=C(Nc1cccc(S(=O)(=O)C(F)(F)F)c1)c1ccccc1NC(=O)c1ccccc1OCC(F)(F)F` [Example 177], the Emax at RXFP1 (read-out: Max Response) and at RXFP1 (setting [4]) was 97% in each case.

For `CC(C)Oc1ccccc1C(=O)Nc1ccccc1C(=O)Nc1cccc(S(=O)(=O)C(F)(F)F)c1` [Example 178, 2-Isopropoxy-N-(2-(3-(trifluoromethylsulfonyl)phenylcarbamoyl)phenyl)benzamide], in the data set with cAMP in THP-1 cells (setting [2]), the EC50 stood at 200 nM.

Consider `CCCOc1ccccc1C(=O)Nc1ccccc1C(=O)Nc1cccc(S(=O)(=O)C(F)(F)F)c1` [Example 179, 2-Propoxy-N-(2-((3-((trifluoromethyl)sulfonyl)phenyl)carbamoyl)phenyl)benzamide], for which the “Relative VEGF gene expression (control = 1.0)” value in data set [1] was determined as 1.5. In the data set with cAMP in THP-1 cells (THP-1, 0.5 h), this molecule returned an EC50 of 105 nM.

As for `CCCCOc1ccccc1C(=O)Nc1ccccc1C(=O)Nc1cccc(S(=O)(=O)C(F)(F)F)c1` [Example 180, 2-Butoxy-N-(2-((3-((trifluoromethyl)sulfonyl)phenyl)carbamoyl)phenyl)benzamide], the EC50 in the data set with cAMP in THP-1 cells (THP-1, 0.5 h) was found to be 124 nM.

Regarding `CCCCOc1ccccc1C(=O)Nc1ccccc1C(=O)Nc1cccc(S(=O)(=O)C(F)(F)F)c1` [Example 180], the Emax at RXFP1 (read-out: Max Response) and at RXFP1 (setting [4]) was 98% throughout.

What is called EC50 is the concentration needed to bring the measured effect to its halfway point. In general, AC50 refers to the midpoint of the concentration-response curve, whichever way the signal moves. The solubility is the concentration that dissolves in the medium under given conditions. The low end stands for a poorly soluble substance, the high end for a readily soluble substance.
